Tests used:
[1] = biological target: Calcium/calmodulin-dependent protein kinase type II subunit gamma (Homo sapiens) (UniProt Q13555); details: Compound concentration 100.0 nM
[2] = biological target: Serine/threonine-protein kinase Nek4 (Homo sapiens) (UniProt P51957); details: Compound concentration 100.0 nM
[3] = biological target: Serine/threonine-protein kinase Chk2 (Homo sapiens) (UniProt O96017); details: Compound concentration 100.0 nM
[4] = biological target: Ribosomal protein S6 kinase alpha-3 (Homo sapiens) (UniProt P51812); details: Compound concentration 100.0 nM
Sequence of Ribosomal protein S6 kinase alpha-3 (Homo sapiens) (P51812 whole entry): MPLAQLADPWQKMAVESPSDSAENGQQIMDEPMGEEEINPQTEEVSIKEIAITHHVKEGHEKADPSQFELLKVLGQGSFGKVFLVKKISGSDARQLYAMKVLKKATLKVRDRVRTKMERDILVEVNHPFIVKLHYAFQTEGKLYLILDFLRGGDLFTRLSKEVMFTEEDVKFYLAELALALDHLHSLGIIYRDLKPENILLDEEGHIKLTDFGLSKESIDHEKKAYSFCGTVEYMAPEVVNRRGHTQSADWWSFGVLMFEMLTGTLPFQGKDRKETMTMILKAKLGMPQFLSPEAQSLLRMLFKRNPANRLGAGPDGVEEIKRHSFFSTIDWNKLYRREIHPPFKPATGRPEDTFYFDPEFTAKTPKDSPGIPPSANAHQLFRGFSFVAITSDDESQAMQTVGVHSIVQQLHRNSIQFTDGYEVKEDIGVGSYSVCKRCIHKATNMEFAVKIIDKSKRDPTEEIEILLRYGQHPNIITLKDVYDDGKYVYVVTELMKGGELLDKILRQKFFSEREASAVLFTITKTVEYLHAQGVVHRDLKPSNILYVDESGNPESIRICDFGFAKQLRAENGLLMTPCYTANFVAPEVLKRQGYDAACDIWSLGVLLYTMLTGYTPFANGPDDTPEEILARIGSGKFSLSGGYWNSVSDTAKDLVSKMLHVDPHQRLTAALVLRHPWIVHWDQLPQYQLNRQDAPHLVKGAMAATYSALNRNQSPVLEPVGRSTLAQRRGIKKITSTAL

[5] = biological target: Mitogen-activated protein kinase kinase kinase 6 (Homo sapiens) (UniProt O95382); details: Compound concentration 100.0 nM
[6] = biological target: Receptor-type tyrosine-protein kinase FLT3 (Homo sapiens) (UniProt P36888); details: Compound concentration 100.0 nM
[7] = biological target: Serine/threonine-protein kinase ULK1 (Homo sapiens) (UniProt O75385); details: Compound concentration 100.0 nM
[8] = biological target: Serine/threonine-protein kinase ULK3 (Homo sapiens) (UniProt Q6PHR2); details: Compound concentration 100.0 nM
[9] = biological target: Serine/threonine-protein kinase 10 (Homo sapiens) (UniProt O94804); details: Compound concentration 100.0 nM
[10] = test system: Tyrosine-protein kinase ABL1 (Homo sapiens), P00519 [H396P]; details: Compound concentration 100.0 nM
[11] = biological target: NUAK family SNF1-like kinase 1 (Homo sapiens) (UniProt O60285); details: Compound concentration 100.0 nM
[12] = biological target: Epithelial discoidin domain-containing receptor 1 (Homo sapiens) (UniProt Q08345); details: Compound concentration 100.0 nM
[13] = biological target: T1, Activin receptor type-1B (Homo sapiens) (UniProt P36896); details: Compound concentration 100.0 nM
T1 sequence (whole entry): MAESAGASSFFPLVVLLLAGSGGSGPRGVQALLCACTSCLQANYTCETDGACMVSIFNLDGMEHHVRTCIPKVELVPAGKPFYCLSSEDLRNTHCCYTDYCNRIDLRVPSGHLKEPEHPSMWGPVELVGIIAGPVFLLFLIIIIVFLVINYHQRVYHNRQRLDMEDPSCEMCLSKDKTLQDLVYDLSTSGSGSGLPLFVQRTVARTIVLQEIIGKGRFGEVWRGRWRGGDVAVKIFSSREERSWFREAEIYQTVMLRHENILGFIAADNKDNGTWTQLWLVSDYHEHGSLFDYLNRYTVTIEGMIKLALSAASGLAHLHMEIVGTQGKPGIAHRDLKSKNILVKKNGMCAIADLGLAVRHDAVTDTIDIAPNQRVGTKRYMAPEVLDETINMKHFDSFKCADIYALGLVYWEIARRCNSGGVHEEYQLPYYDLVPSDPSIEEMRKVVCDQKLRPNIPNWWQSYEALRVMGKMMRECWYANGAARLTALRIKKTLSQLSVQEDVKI

[14] = biological target: Serine/threonine-protein kinase WNK3 (Homo sapiens) (UniProt Q9BYP7); details: Compound concentration 100.0 nM
[15] = biological target: Cyclin-dependent kinase 16 (Homo sapiens) (UniProt Q00536); details: Compound concentration 100.0 nM
[16] = biological target: TGF-beta receptor type-1 (Homo sapiens) (UniProt P36897); details: Compound concentration 100.0 nM
[17] = test system: Receptor-type tyrosine-protein kinase FLT3 (Homo sapiens), P36888 [UNDEFINED MUTATION]; details: Compound concentration 100.0 nM
[18] = biological target: Dual specificity mitogen-activated protein kinase kinase 6 (Homo sapiens) (UniProt P52564); details: Compound concentration 100.0 nM
[19] = biological target: Tyrosine-protein kinase CSK (Homo sapiens) (UniProt P41240); details: Compound concentration 100.0 nM
[20] = biological target: Cyclin-dependent kinase 14 (Homo sapiens) (UniProt O94921); details: Compound concentration 100.0 nM
Sequence of Cyclin-dependent kinase 14 (Homo sapiens) (O94921 whole entry): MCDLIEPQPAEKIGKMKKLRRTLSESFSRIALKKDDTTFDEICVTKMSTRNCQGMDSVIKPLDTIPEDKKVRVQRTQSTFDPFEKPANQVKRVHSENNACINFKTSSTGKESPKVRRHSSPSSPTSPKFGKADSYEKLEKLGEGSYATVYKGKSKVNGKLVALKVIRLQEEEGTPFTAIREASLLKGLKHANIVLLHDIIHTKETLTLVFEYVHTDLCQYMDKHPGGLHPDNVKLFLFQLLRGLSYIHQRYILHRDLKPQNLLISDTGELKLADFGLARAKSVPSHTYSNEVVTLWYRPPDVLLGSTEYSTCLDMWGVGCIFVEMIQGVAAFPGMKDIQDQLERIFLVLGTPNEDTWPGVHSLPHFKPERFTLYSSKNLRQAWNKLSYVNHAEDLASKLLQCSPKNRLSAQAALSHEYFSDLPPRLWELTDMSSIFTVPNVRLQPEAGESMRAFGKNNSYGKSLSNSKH

[21] = biological target: Tyrosine-protein kinase ABL1 (Homo sapiens) (UniProt P00519); details: Compound concentration 100.0 nM
[22] = biological target: Activated CDC42 kinase 1 (Homo sapiens) (UniProt Q07912); details: Compound concentration 100.0 nM
[23] = biological target: Myosin-IIIa (Homo sapiens) (UniProt Q8NEV4); details: Compound concentration 100.0 nM
Sequence of Myosin-IIIa (Homo sapiens) (Q8NEV4 whole entry): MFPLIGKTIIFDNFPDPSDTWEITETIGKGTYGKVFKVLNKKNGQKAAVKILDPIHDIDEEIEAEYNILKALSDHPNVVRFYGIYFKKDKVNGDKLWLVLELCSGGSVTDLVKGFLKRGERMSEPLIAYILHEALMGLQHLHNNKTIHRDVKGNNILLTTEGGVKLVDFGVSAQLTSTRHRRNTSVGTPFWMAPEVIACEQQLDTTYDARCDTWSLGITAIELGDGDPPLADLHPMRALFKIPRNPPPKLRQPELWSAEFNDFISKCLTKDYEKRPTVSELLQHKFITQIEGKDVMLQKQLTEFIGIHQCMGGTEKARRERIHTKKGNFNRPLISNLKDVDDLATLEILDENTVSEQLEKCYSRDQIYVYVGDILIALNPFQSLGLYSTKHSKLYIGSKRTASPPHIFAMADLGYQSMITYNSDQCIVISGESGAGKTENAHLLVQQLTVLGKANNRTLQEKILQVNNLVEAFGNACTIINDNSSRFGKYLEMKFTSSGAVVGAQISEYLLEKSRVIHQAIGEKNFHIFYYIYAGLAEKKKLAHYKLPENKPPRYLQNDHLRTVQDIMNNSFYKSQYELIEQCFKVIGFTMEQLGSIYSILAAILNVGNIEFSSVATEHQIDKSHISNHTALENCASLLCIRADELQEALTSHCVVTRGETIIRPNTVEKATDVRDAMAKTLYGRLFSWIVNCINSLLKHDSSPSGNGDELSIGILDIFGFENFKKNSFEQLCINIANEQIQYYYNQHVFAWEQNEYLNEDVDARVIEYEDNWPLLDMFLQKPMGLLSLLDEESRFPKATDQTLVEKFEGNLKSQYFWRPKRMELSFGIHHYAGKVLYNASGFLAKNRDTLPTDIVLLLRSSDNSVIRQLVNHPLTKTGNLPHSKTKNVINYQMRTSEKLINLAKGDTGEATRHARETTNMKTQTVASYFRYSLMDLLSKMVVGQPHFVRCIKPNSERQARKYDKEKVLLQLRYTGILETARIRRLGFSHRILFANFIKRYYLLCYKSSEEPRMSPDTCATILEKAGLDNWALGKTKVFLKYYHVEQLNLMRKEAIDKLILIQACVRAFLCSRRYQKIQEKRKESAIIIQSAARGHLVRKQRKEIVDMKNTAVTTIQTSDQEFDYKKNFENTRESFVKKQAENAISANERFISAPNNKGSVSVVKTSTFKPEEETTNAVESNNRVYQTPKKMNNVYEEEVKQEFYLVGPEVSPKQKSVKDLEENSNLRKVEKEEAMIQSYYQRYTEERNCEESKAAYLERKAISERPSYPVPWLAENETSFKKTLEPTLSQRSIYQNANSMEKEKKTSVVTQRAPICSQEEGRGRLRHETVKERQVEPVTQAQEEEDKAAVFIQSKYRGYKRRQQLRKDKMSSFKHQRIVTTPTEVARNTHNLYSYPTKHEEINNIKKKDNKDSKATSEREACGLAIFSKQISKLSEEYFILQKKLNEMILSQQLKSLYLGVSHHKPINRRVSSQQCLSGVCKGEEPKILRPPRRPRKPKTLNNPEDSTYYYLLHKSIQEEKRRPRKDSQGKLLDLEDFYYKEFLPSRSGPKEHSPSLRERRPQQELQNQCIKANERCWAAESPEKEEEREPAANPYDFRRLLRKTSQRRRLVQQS

[24] = biological target: Ribosomal protein S6 kinase alpha-3 (Homo sapiens) (UniProt P51812); details: Compound concentration 100.0 nM; remark: listed apart in the source
[25] = biological target: Serine/threonine-protein kinase PknB (Mycobacterium tuberculosis) (UniProt P9WI81); details: Compound concentration 100.0 nM
Sequence of Serine/threonine-protein kinase PknB (Mycobacterium tuberculosis) (P9WI81 whole entry): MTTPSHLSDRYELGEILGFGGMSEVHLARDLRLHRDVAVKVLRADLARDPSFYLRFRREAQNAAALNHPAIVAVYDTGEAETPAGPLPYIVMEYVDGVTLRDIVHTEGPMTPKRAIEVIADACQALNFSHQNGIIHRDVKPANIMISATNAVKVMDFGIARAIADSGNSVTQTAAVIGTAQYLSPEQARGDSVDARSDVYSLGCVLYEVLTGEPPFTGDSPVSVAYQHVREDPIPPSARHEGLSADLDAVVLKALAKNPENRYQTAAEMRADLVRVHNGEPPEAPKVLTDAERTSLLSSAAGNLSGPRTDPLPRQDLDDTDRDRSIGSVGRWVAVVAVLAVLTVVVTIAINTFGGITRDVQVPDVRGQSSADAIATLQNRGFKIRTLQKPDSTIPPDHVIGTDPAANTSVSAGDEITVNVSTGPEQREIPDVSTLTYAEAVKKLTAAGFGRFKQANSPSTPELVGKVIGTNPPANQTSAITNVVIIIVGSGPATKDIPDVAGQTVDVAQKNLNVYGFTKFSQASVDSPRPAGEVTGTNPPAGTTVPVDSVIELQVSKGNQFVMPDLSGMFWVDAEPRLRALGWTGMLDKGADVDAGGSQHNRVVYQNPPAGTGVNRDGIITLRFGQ

[26] = biological target: Serine/threonine-protein kinase 17B (Homo sapiens) (UniProt O94768); details: Compound concentration 100.0 nM
[27] = biological target: Serine/threonine-protein kinase Nek7 (Homo sapiens) (UniProt Q8TDX7); details: Compound concentration 100.0 nM
[28] = test system: Tyrosine-protein kinase ABL1 (Homo sapiens), P00519 [M351T]; details: Compound concentration 100.0 nM
Rattus norvegicus = organism: Rattus norvegicus; details: Compound concentration 10.0 uM
[29] = biological target: Rhodopsin kinase GRK7 (Homo sapiens) (UniProt Q8WTQ7); details: Compound concentration 100.0 nM
[30] = biological target: Serine/threonine-protein kinase DCLK2 (Homo sapiens) (UniProt Q8N568); details: Compound concentration 100.0 nM
[31] = biological target: Ribosomal protein S6 kinase alpha-1 (Homo sapiens) (UniProt Q15418); details: Compound concentration 100.0 nM
Sequence of Ribosomal protein S6 kinase alpha-1 (Homo sapiens) (Q15418 whole entry): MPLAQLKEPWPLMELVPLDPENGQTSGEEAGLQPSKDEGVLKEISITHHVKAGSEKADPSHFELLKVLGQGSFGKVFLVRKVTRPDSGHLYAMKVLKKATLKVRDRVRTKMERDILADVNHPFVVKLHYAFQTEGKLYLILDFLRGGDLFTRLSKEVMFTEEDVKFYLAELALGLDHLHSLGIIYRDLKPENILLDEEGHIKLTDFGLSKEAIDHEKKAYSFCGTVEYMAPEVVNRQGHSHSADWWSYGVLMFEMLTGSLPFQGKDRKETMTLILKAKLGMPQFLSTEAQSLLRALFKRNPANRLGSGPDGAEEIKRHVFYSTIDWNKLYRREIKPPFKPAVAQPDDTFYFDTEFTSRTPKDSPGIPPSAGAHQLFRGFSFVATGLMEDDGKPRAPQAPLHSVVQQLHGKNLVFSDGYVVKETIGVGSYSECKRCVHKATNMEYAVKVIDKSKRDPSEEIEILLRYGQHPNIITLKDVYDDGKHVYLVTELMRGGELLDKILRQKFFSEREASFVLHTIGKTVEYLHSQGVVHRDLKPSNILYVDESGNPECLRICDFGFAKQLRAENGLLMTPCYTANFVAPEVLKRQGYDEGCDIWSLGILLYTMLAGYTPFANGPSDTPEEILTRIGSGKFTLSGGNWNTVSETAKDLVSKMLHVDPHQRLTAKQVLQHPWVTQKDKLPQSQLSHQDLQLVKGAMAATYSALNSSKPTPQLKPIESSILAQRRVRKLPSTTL

[32] = biological target: Serine/threonine-protein kinase Nek5 (Homo sapiens) (UniProt Q6P3R8); details: Compound concentration 100.0 nM
Sequence of Serine/threonine-protein kinase Nek5 (Homo sapiens) (Q6P3R8 whole entry): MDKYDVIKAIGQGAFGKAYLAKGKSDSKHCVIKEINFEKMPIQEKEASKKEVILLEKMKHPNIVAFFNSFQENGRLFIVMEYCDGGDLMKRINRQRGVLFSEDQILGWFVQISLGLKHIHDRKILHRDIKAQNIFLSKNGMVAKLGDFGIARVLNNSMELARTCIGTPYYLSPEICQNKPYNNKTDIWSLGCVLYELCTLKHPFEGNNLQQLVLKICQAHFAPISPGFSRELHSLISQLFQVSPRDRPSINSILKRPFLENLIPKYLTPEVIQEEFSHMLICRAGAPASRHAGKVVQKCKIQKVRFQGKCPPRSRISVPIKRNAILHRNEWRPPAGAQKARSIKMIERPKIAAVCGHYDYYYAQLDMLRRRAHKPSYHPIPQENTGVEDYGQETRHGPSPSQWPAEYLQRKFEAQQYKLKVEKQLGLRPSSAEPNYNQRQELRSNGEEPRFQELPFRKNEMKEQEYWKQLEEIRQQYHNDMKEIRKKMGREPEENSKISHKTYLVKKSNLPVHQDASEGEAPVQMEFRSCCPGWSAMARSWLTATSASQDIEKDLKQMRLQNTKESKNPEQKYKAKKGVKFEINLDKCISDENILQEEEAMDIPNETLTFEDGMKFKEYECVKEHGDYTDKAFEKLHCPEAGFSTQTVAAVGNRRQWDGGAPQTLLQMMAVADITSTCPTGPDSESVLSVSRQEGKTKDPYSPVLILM

[33] = biological target: RAC-beta serine/threonine-protein kinase (Homo sapiens) (UniProt P31751); details: Compound concentration 100.0 nM
[34] = biological target: Cyclin-dependent kinase 17 (Homo sapiens) (UniProt Q00537); details: Compound concentration 100.0 nM
[35] = biological target: Sodium-dependent serotonin transporter (Homo sapiens) (UniProt P31645); details: Compound concentration 10.0 uM
[36] = biological target: 5-hydroxytryptamine receptor 2C (Homo sapiens) (UniProt P28335); details: Compound concentration 10.0 uM
[37] = biological target: Wee1-like protein kinase (Homo sapiens) (UniProt P30291); details: Compound concentration 100.0 nM
[38] = biological target: Myosin light chain kinase, smooth muscle (Homo sapiens) (UniProt Q15746); details: Compound concentration 100.0 nM

Row | Compound | residual activity [1] [%] | residual activity [2] [%] | residual activity [3] [%] | residual activity [4] [%] | residual activity [5] [%] | residual activity [6] [%] | residual activity [7] [%] | residual activity [8] [%] | residual activity [9] [%] | residual activity [10] [%] | residual activity [11] [%] | residual activity [12] [%] | residual activity [13] [%] | residual activity [14] [%] | residual activity [15] [%] | residual activity [16] [%] | residual activity [17] [%] | residual activity [18] [%] | residual activity [19] [%] | residual activity [20] [%] | other results
1 | CCOC(=O)c1cc2cc(-c3cc(C(=O)NCc4ccc(C(=O)O)cc4)nn3C)ccc2[nH]1 [BI 4394] | 100 | 81 | 100 | 80 | 79 | 90 | 87 | 100 | 100 | 88 | 100 | 100 | 86 | 96 | 75 | 100 | 87 | 100 | 74 | 100 | residual activity [21]: 94%; residual activity [22]: 100%; residual activity [23]: 100%; residual activity [24]: 100%; residual activity [25]: 100%; residual activity [26]: 100%; residual activity [27]: 100%; residual activity [28]: 90%; inhibition (Rattus norvegicus): -1.91%; residual activity [29]: 86%; residual activity [30]: 100%; residual activity [31]: 84%; residual activity [32]: 100%; residual activity [33]: 100%; residual activity [34]: 100%; inhibition [35]: -0.14%; inhibition [36]: 3.56%; residual activity [37]: 90%; residual activity [38]: 100%
2 | Cn1nc(C(=O)NCc2ccc(C(=O)O)cc2)cc1-c1ccc2[nH]ccc2c1 [BI 4395] | 83 | 84 | 100 | 70 | 88 | 86 | 83 | 99 | 80 | 71 | 70 | 89 | 83 | 67 | 93 | 97 | 99 | 100 | 94 | 100 | residual activity [21]: 62%; residual activity [22]: 100%; residual activity [23]: 95%; residual activity [24]: 78%; residual activity [25]: 76%; residual activity [26]: 91%; residual activity [27]: 98%; residual activity [28]: 75%; inhibition (Rattus norvegicus): 6.39%; residual activity [29]: 100%; residual activity [30]: 92%; residual activity [31]: 95%; residual activity [32]: 48%; residual activity [33]: 96%; residual activity [34]: 77%; inhibition [35]: 5.3%; inhibition [36]: -9.67%; residual activity [37]: 100%; residual activity [38]: 62%
